Here are results for four compounds from publication PMC10363080, “Modulatory Effect of Pyrus pyrifolia Fruit and its Phenolics on Key Enzymes against Metabolic Syndrome: Bioassay-Guided Approach, HPLC Analysis, and In Silico Study” (Plant Foods for Human Nutrition (Dordrecht, Netherlands), 2023).

Broadly, the IC50 is the point on the concentration scale where inhibition reaches its midpoint.

Experiment [1] is described as follows: Ferric reducing antioxidant power (FRAP) assay. On the set-up: FRAP AA (%) antioxidant activity percentage: concentration or dose not given beside the values. The following applies: for FRAP antioxidant activity: Trolox equivalent per gram of sample, mean ± SD, n=3; for FRAP AA (%) antioxidant activity percentage: compared to ascorbic acid (=100). As to the method:
(§1) all of analytical grade. An electrothermal 9100 (UK) was used for the determination of melting points (uncorrected). A Jenway model 6800 spectrophotometer was utilized for recording UV spectra. A Tecan, microplate reader, ((Infinite F50, Switzerland)) was used to measure the absorbances. A Bruker NMR system was used for 1H-NMR (400 MHz) and 13C-NMR (100 MHz).
(§2) The NMR spectra were determined in CD3OH and DMSO-d6. Chemical shifts are given in δ (ppm) relative to the internal standard TMS. Phenolic acids and flavonoids used in HPLC analysis as well as all other reagents for biological investigations were obtained from Sigma Chemical Company […]
(§3) Determination of the antioxidant activity
(§4) 2,2`-Azino-bis(3-ethylbenzothiazoline-6-sulfonic acid) (ABTS), ferric reducing antioxidant power (FRAP), and oxygen radical absorbance capacity (ORAC) assays were performed according to the previously published procedures. Ascorbic acid was used as a reference antioxidant […]
drug. […]

The nature of experiment [2]: Oxygen radical absorbance capacity (ORAC) assay. The following applies: for ORAC antioxidant activity: Trolox equivalent per gram of sample, mean ± SD, n=3; for ORAC AA (%) antioxidant activity percentage: compared to ascorbic acid (=100). As to the method: as §1, §2, §3, §4
drug. […]

The nature of experiment [3]: ABTS radical scavenging antioxidant assay. On the set-up: ABTS AA (%) antioxidant activity percentage: concentration or dose not given beside the values. The following applies: for ABTS antioxidant activity: Trolox equivalent per gram of sample, mean ± SD, n=3; for ABTS AA (%) antioxidant activity percentage: compared to ascorbic acid (=100). As to the method:
as §1, §2, §3, §4
drug. […]

Another experiment addresses T1, Recombinant renin (Homo sapiens, UniProt P00797).
T1 construct: purchased BPS Bioscince
T1 sequence (P00797 67-406): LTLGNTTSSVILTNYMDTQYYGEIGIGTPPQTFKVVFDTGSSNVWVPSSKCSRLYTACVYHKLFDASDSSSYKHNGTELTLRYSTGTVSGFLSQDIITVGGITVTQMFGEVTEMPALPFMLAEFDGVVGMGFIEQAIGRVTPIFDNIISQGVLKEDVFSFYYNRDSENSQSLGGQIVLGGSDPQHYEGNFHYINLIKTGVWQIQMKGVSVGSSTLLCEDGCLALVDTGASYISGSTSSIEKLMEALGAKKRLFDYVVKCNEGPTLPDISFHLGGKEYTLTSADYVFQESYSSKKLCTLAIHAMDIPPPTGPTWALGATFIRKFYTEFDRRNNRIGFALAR
Briefly: Renin inhibitory activity (renin-inhibitor screening assay kit). The following applies: read-out: Inhibition (IC50) Renin (converted). The class given is biochemical. As to the method:
all of analytical grade. […]
(§5) Phenolic acids and flavonoids used in HPLC analysis as well as all other reagents for biological investigations were obtained from Sigma Chemical Company […]
(§6) Inhibitory activity against key enzymes related to metabolic syndrome (MS) All assays were performed in 96-well plates. Stock solutions of the extract (100 mg/mL), fractions (100 mg/mL), and isolated compounds (1000 µM) were prepared. Tested samples that exceeded […]
(§7) inhibitory concentration (IC50). The percentage of enzyme inhibition was calculated according to […]
(§8) % Inhibition = (A−B) − (C−D) x 100 […]
Renin inhibitory activity
The renin inhibitory activity was examined according to a previously described method using renin-inhibitor screening assay kit (BPS Bioscince, San Diego, CA, USA) and quinapril as a reference drug. Recombinant renin enzyme (50 μL) was dissolved in 50-mM Tris-HCl buffer (pH 8.0) and 100-mM NaCl (assay buffer) and stored at –80°C for further analysis. Twenty μL of renin substrate (A500 μM in DMSO), 150 μL of assay buffer, and 10 μL of each sample were used to prepare test solutions (10mg/ml in methanol). The blank samples were made using 10 μL of the sample, 20 μL of the substrate, and 160 μL of assay buffer. The positive control samples were created using 10 μL of methanol, 20 μL of substrate, and 150 μL of assay buffer. The positive control and tested samples were combined with 10 μL of the renin solution for the assay in order to catalyze the reaction. After that, the reaction mixture was incubated for 45 minutes at 37 °C.
The fluorescence generated at the 340 nm excitation and 490 nm emission wavelengths was measured using a microplate reader.
Xanthine oxidase (XO) inhibitory activity
Xanthine oxidase (XO) inhibitory potential was carried out according to a previous designed procedure using xanthine oxidase (XO, EC 1.17.3.2; Biovision, USA). Allopurinol was applied as a reference drug. Immediately prior to use, a mixture was made up of 50 μL of sample solution, 35 μL of phosphate buffer (70 mM, pH = 7.5), and 30 μL of new enzyme solution (0.01 units/mL in the same buffer). The reaction was started by adding 60 μL of the substrate solution (150 μM xanthine in the same buffer) following a pre-incubation at 25 °C for 15 minutes. After that, the mixture was incubated at 25 °C for 30 min. After adding 25 μL of 1 M HCl to terminate the reaction, the absorbance was measured at 290 nm with a microplate reader as previously

In experiment [4] the target is T2, inducible nitric oxide synthase (iNOS) (Mus musculus, UniProt P29477).
T2 construct: endogenous in cells; host or cells: RAW264.7 mouse macrophages, LPS-induced
T2 sequence (P29477 1-1144): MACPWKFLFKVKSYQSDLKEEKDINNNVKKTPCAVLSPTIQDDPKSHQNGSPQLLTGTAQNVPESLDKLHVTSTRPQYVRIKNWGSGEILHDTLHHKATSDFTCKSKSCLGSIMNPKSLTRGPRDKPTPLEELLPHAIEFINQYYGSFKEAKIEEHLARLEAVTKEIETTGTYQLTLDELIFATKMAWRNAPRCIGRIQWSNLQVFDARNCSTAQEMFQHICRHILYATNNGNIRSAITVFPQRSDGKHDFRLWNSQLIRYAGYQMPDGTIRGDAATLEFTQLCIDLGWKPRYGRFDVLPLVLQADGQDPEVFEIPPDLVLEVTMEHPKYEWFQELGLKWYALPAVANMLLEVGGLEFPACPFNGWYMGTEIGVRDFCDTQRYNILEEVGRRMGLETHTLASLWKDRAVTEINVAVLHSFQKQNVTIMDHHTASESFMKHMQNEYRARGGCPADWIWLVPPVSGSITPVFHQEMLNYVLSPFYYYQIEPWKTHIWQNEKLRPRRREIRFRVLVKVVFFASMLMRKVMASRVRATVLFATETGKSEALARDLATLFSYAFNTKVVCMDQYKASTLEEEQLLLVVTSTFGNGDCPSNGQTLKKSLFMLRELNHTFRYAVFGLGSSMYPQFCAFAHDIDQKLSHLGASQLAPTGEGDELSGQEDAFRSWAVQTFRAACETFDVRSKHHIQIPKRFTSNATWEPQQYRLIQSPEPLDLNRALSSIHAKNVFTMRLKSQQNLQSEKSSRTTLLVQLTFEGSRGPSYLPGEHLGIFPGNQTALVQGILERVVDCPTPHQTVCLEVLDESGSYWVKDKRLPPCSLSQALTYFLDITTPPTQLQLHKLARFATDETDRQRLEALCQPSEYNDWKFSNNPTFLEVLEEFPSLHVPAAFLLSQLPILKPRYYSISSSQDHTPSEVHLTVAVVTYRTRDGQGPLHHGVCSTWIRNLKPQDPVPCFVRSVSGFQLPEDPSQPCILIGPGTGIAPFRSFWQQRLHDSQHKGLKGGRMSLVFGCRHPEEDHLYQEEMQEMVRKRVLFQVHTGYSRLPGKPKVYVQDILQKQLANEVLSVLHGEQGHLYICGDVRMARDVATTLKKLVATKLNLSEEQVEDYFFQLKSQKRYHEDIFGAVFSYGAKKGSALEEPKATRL
Kind of experiment: iNOS inhibitory activity in LPS-induced RAW264.7 macrophages (nitrite, Griess reagent). It counts as cell-based. The following applies: read-out: Inhibition (IC50) iNOS (converted). As to the method:
as §5, §6, §7, §8
Inducible nitric oxide synthase (iNOS) inhibitory activity iNOS inhibitory activity was determined in mouse macrophage cells (RAW264.7, Shanghai BOGO Industrial Co., Ltd., China) according to a previously designed method. Phenol red-free RPMI medium from Thermo-Fisher was used to develop macrophages. It was supplemented with 10% bovine calf serum, 100 U/mL of penicillin G sodium from Sigma-Aldrich, and 100 µg/mL of streptomycin (Sigma-Aldrich). Cells (50,000/well) were seeded onto 96-well plates, which were […]

The structures appear in SMILES notation. Read-outs that look alike come from different tables or passages of the source.

As for `O=C1O[C@H]([C@@H](O)CO)C(O)=C1O` [Ascorbic acid, reference compound], in experiment [1], the FRAP antioxidant activity stood at 155.22±0.03 μM TE/g and the “FRAP AA (%) antioxidant activity percentage” value came to 100%. Also, in experiment [2], the ORAC antioxidant activity is given as 390.21±0.99 μM TE/g and the “ORAC AA (%) antioxidant activity percentage” value is on record as 100%. Besides, in experiment [3], the ABTS antioxidant activity was found to be 287.78±1.01 μM TE/g and the “ABTS AA (%) antioxidant activity percentage” value is recorded as 100%.
Take `O=c1c(O)c(-c2ccc(O)c(O)c2)oc2cc(O)cc(O)c12` [P5, quercetin]: the IC50 at Recombinant renin (isolated compounds, Table S7) was 21.9 ± 0.25 µM. Further, in experiment [1], the FRAP antioxidant activity turned out to be 139.03±0.65 μM TE/g and the “FRAP AA (%) antioxidant activity percentage” value stood at 89.57%. In addition, in experiment [1] (listed as quercetin), the FRAP antioxidant activity is given as 139.03 ± 0.65 μM TE/g. In experiment [2], the ORAC antioxidant activity was found to be 358.95±0.78 μM TE/g and the “ORAC AA (%) antioxidant activity percentage” value stood at 91.99%. The ORAC antioxidant activity in experiment [2] (listed as quercetin) was determined as 358.95 ± 0.78 μM TE/g. Also, in experiment [3], the ABTS antioxidant activity was found to be 244.01±0.29 μM TE/g and the “ABTS AA (%) antioxidant activity percentage” value is on record as 84.79%. For the same compound, the ABTS antioxidant activity in experiment [3] (listed as quercetin) is given as 244.01 ± 0.29 μM TE/g.
In the case of `C=C1C(=O)O[C@H]2[C@H]1CC/C(C)=C/CC[C@@]1(C)O[C@@H]21` [parthenolide, reference compound], the IC50 in experiment [4] (extract and fractions, Table S2, RAW264.7 cells) is 4.51 µM; in experiment [4] (isolated compounds, Table S7, RAW264.7 cells), 4.51 µM.
Take `CCOC(=O)[C@H](CCc1ccccc1)N[C@@H](C)C(=O)N1Cc2ccccc2C[C@H]1C(=O)O` [quinapril, reference compound]: the 50% inhibitory concentration (IC50) was 0.0456 µM on Recombinant renin (extract and fractions, Table S2); 0.045 µM on Recombinant renin (isolated compounds, Table S7).
